Experiment in all cases: inhibition of tumour cell growth, NCI panel, 48 h
In assay [1] the test system is ACHN.
Assay [2] deals with 786-0.
Assay [3] concerns IGROV-1.
Assay [4] has as its system SK-MEL-28.
In assay [5] the test system is HCT-15.
In assay [6] the test system is SF-268.
The subject of assay [7] is OVCAR-5.
Assay [8] deals with HCT-116.
Assay [9] has as its system MCF7.
In assay [10] the test system is HL-60.
The subject of assay [11] is PC-3.
Assay [12] has as its system CCRF-CEM.
Assay [13] concerns U-251.
The test system of assay [14] is NCI-H460.
Assay [15] concerns T47D.
Assay [16] has as its system SN12C.
The test system of assay [17] is OVCAR-8.
Assay [18] concerns MDA-MB-231.
Assay [19] concerns SK-OV-3.
For assay [20], the system named is A549.

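Five compound concentrations were applied to cells in 96-well plates for 48 hours; endpoints were derived by simple linear interpolation of the resulting dose-response curve. GI50 marks 50% less growth.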 The source made the active and inactive calls. No stated cut-off is given here; in the data, active = GI50 up to about 1.1 µM and inactive = higher.

As for `COC(=O)N/N=C(/c1nc2ccc([N+](=O)[O-])cc2nc1O)C(O)c1ccc(OC)c(OC)c1` (stereo not given), the GI50 in [1] is > 100 µM (inactive); in assay [2] it was > 69 µM (inactive); in [3], > 100 µM (inactive); in assay [4] it was > 100 µM (inactive); in [5], 46.8 µM; in assay [6] it was > 81.1 µM (inactive). The GI50 in [7] is > 100 µM (inactive); in assay [8] it was 97.1 µM (inactive); in assay [9], 88.1 µM (inactive); in assay [10] it was > 68.5 µM (inactive); in assay [11], 76.2 µM (inactive); in assay [12], 37.8 µM (inactive). For the same compound, the GI50 in assay [13] is > 100 µM (inactive); in [14], 59 µM (inactive); in assay [15], 80 µM (inactive); in assay [16], > 100 µM (inactive); in [17], > 100 µM (inactive); in [18], 64.3 µM (inactive). The GI50 in assay [19] and in [20] was > 100 µM (inactive) in each case.
Regarding `C=C(O)c1ccccc1C#Cc1ccccc1C(=O)OC`, the GI50 is > 10 µM (inactive) in assay [1]; > 10 µM (inactive) in assay [2]; > 10 µM (inactive) in assay [3]; > 10 µM (inactive) in [4]; above 10 µM in [5]; > 10 µM (inactive) in [6]. Also, the GI50 in [7], in assay [8], in assay [9], in [10], in assay [11] and in assay [12] was > 10 µM (inactive) each time. Moreover, the GI50 in assay [13], in assay [14], in [15], in assay [16], in assay [17] and in [18] was > 10 µM (inactive) in each case. For the same compound, the GI50 in assay [19] and in [20] was > 10 µM (inactive) in each case.
On to `CCC1=C(c2ccc(OC)cc2)CC[C@]2(CCNC2=O)[C@@H]1C`, for which the GI50 in [1] was 25.6 µM (inactive); in assay [2], 42.5 µM (inactive); in [3], 40.3 µM (inactive); in assay [4] it was 30.5 µM (inactive); in [5], 28.7 µM; in [6] it was 33.1 µM (inactive). In addition, the GI50 in [7] was 31.1 µM (inactive); in assay [8] it was 23.6 µM (inactive); in [9] it was 21.9 µM (inactive); in assay [10] it was 51.3 µM (inactive); in assay [11], 26.4 µM (inactive); in assay [12], 24.8 µM (inactive). For the same compound, the GI50 in assay [13] was 29.9 µM (inactive); in assay [14], 28.2 µM (inactive); in [15] it was 32.4 µM (inactive); in assay [16], 37.8 µM (inactive); in [17] it was 42.4 µM (inactive); in assay [18] it was 39.1 µM (inactive). For the same compound, the GI50 is 45.8 µM (inactive) in assay [19] and 37.6 µM (inactive) in assay [20].
In the case of `COc1ccc(/C(CC2OC(=O)c3ccccc32)=N\NC(=O)C[N+](C)(C)C)cc1` (stereo not given), the GI50 in [1] was 28.2 µM (inactive); in [2], 23.6 µM (inactive); in [3] it was 34.4 µM (inactive); in [4] it was 19.7 µM (inactive); in assay [5], 19.2 µM; in assay [6], 30.5 µM (inactive). Moreover, the GI50 in [7] was > 100 µM (inactive); in assay [8], 22.5 µM (inactive); in [9], 42 µM (inactive); in [10] it was 33.4 µM (inactive); in assay [11], 47.8 µM (inactive); in assay [12], 25.1 µM (inactive). The GI50 is 17.2 µM (inactive) in assay [13]; 24.6 µM (inactive) in assay [14]; 25.8 µM (inactive) in assay [15]; 34.7 µM (inactive) in [16]; 19.5 µM (inactive) in [17]; 57.3 µM (inactive) in assay [18]. For the same compound, the GI50 in [19] was 38.8 µM (inactive); in assay [20], 36 µM (inactive).
`COC(=O)C(Cc1ccc(OC)cc1O)NC(=O)OC(C)(C)C` (stereo not given): the GI50 in assay [1] is > 100 µM (inactive); in assay [2], > 100 µM (inactive); in assay [3], > 100 µM (inactive); in assay [4], > 100 µM (inactive); in [5], above 100 µM; in [6] it was > 100 µM (inactive). For the same compound, the GI50 in assay [7], in [8], in assay [9], in [10], in assay [11] and in assay [12] was > 100 µM (inactive) in each case. For the same compound, the GI50 in assay [13], in [14], in assay [15], in assay [16], in assay [17] and in assay [18] was > 100 µM (inactive) throughout. Further, the GI50 in [19] and in assay [20] was > 100 µM (inactive) in each case.
Consider `CC(Oc1ccccc1)C(=O)NNC(=O)OC(C)(C)C` (stereo not given), for which the GI50 in assay [1] is > 100 µM (inactive); in assay [2], > 100 µM (inactive); in [3], > 100 µM (inactive); in [4] it was > 100 µM (inactive); in assay [5], above 100 µM; in [6], > 100 µM (inactive). Besides, the GI50 in assay [7], in assay [8], in assay [9], in assay [10], in [11] and in [12] was > 100 µM (inactive) in each case. Also, the GI50 in assay [13], in [14], in assay [15], in assay [16], in assay [17] and in assay [18] was > 100 µM (inactive) in each case. The GI50 in [19] and in assay [20] was > 100 µM (inactive) in each case.
Take `O=C1C=CC[C@H](/C=C/C[C@@H](O)C[C@H](O)/C=C/c2ccccc2)O1`: the GI50 in assay [1] was 14.6 µM (inactive); in assay [2] it was 16.1 µM (inactive); in [3], 13.6 µM (inactive); in assay [4] it was 16.7 µM (inactive); in assay [5], 10.5 µM; in assay [6], 21.8 µM (inactive). Also, the GI50 is 15.1 µM (inactive) in [7]; 5.09 µM (inactive) in [8]; 12.4 µM (inactive) in assay [9]; 3.56 µM (inactive) in assay [10]; 14.5 µM (inactive) in [11]; 3.74 µM (inactive) in assay [12]. Further, the GI50 in assay [13] was 11.9 µM (inactive); in [14], 15.3 µM (inactive); in assay [15], 14.3 µM (inactive); in assay [16] it was 13.8 µM (inactive); in [17] it was 14.4 µM (inactive); in assay [18] it was 10.5 µM (inactive). In addition, the values for the GI50 in assay [19] and in assay [20] were 15 µM (inactive) and 15.8 µM (inactive), respectively.
Consider `O=C1CC2C(=O)C1C(C(=O)O)C2C(=O)O` (stereo not given), for which the GI50 in [1] was > 100 µM (inactive); in assay [2], > 100 µM (inactive); in [3], > 100 µM (inactive); in assay [4] it was > 100 µM (inactive); in [5], above 100 µM; in assay [6], > 100 µM (inactive). For the same compound, the GI50 in assay [7], in [8], in assay [9], in [10], in [11] and in assay [12] was > 100 µM (inactive) in each case. Also, the GI50 in assay [13], in assay [14], in assay [15], in assay [16], in assay [17] and in [18] was > 100 µM (inactive) each time. Also, the GI50 in assay [19] and in [20] was > 100 µM (inactive) throughout.
With `O=C1c2ccccc2S(=O)(=O)c2ccccc21`, the GI50 was > 100 µM (inactive) in assay [1]; > 100 µM (inactive) in [2]; > 100 µM (inactive) in assay [3]; > 100 µM (inactive) in assay [4]; above 100 µM in [5]; > 100 µM (inactive) in [6]. The GI50 in assay [7], in assay [8], in assay [9], in assay [10], in [11] and in [12] was > 100 µM (inactive) in each case. Also, the GI50 in assay [13], in [14], in assay [15], in [16], in assay [17] and in assay [18] was > 100 µM (inactive) each time. Further, the GI50 in [19] and in [20] was > 100 µM (inactive) each time.
As for `CN(C)CCNc1ccc2c(=O)n(CCN(C)C)c(=O)n3c4ccccc4c(=O)c1c23`, the GI50 in assay [1] was 0.0161 µM (active); in [2] it was < 0.0198 µM (active); in [3], 0.0404 µM (active); in assay [4], 0.116 µM (active); in [5], 0.0815 µM; in assay [6], 0.0512 µM (active). The GI50 in [7] was 0.318 µM (active); in assay [8], 0.0269 µM (active); in assay [9], < 0.0174 µM (active); in [10], < 0.01 µM (active); in assay [11], 0.114 µM (active); in assay [12], < 0.01 µM (active). For the same compound, the GI50 in assay [13] is 0.0402 µM (active); in assay [14], < 0.0113 µM (active); in assay [15], 0.133 µM (active); in assay [16] it was 0.0198 µM (active); in assay [17], 0.0711 µM (active); in [18], 0.114 µM (active). For the same compound, the values for the GI50 in assay [19] and in [20] were < 0.0392 µM (active) and < 0.0216 µM (active), respectively.
